Where a name gives a salt, the structure may show the parent alone. Read-outs that look alike come from different tables or passages of the source.
What was measured:
[1] = Toxicity to normal cells (SRB); assay type: cell-based, human; settings: human, Hs27 fibroblasts (normal cell line)
Protocol: (§1) MDA-MB-231 breast cancer cell lines (ATCC #HTB-26) and BxPC-3 pancreas cancer cell lines (ATCC #CRL 1687), which have been reported to express XIAP, were obtained from ATCC (American type culture collection; Rockville, Md.). MDA-MB-231 cell lines were incubated in L-15 medium supplemented with 10% FBS and 1% penicillin/streptomycin (Gibco BRL) at a T-75 cm^2 growth flask. In addition, BxPC-3 cell lines were incubated in RPMI medium supplemented with 10% FBS and 1% penicillin/streptomycin. For experiments of toxicity to normal cells, fibroblasts Hs27 (ATCC #CRL 1634) and Balb/c3t3 (ATCC #CCL 163) were used. The various cell lines were transferred into 96-well plates at a density of 3,000˜5,000 cells/100 μL, and cultured for 24 hours under conditions of 37° C., 5% CO2, 95% air, and 100% relative humidity (MDA-MB-231 cells were cultured under atmospheric conditions). The cells were treated with 10 μM˜0.1 nM of test compounds, and MDA-MB-231, BxPC-3, and normal cell lines were cultured for 120, 96, and 72 hours, respectively.
(§2) Cell viabilities of MDA-MB-231 cell lines were measured at an absorbance of 490 nm using CellTiter 96™ AQueous One Solution Cell proliferation Assay (MTS, Promega), and cell viabilities of BxPC-3 and normal cell lines were measured by fixing cells with 10% TCA (trichloroacetic acid), staining with SRB (sulforhodamine B), and measuring at 540 nm. From the values, GI50 values in which test compounds reduce the growth of cancer cells by 50% were calculated. The growth rates of cancer cells were calculated from following Equation 1 or 2. [(Ti−Tz)/(C−Tz)]×100 (for Ti>=Tz) [Equation 1] [(Ti−Tz)/Tz]×100 (for Ti<Tz) [Equation 2] In Equations 1 and 2, Tz refers to a density of untreated cells, which is an absorbance in 0% cell growth groups. C refers to a density of cells cultured by adding only medium, and Ti refers to a density of cells treated with test compounds.
(§3) GI50 value is the concentration of a test compound when the value of Equation 1 is 50, which indicates the concentration of test compound required to inhibit the cancer cells by 50%. On each measurement, test compounds were compared with a control.
(§4) The activity value of each compound (GI50 value) was shown in Table 5, and an IAP antagonist was used as a control.
(§5) In the activity measurement on MDA-MB-231 breast cancer cell lines, the values were represented as “***” for 100 nM or less, “**” for over 100 nM to below 1,000 nM, and “*” for 1,000 nM or more. In the measurement on normal cell lines, Balb/C and Hs27, the values were represented as “+++” for 10,000 nM or more, “++” for over 5,000 nM to below 10,000 nM, and “+” for 5,000 nM or less.

[2] = Toxicity to normal cells (SRB); assay type: cell-based, mouse; settings: mouse, Balb/c3t3 fibroblasts (normal cell line), read-out: BalB/C (GI50)
Protocol: as §1, §2, §3, §4, §5

[3] = system: MDA-MB-231 breast cancer cell lines; assay: Evaluation of inhibition on cell growth (MTS); assay type: cell-based; settings: Homo sapiens, MDA-MB-231, 120 hours
Protocol: as §1, §2, §3, §4, §5

Structure (SMILES)	GI50 [3] [µM]	GI50 at 72 h [1] [µM]	GI50 at 72 h [2] [µM]
CN[C@@H](C)C(=O)N[C@H](C(=O)N1CCC[C@H]1C(=O)Nc1cc2c(Nc3ccc(F)c(Cl)c3F)ncnc2cc1OCCOC)C(C)(C)C [Example 6, (S)—N-(4-(3-chloro-2,4-difluorophenylamino)-7-(2-methoxyethoxy)quinazolin-6-yl)-1-((S)-3,3-dimethyl-2-((S)-2-(methylamino)propanamido)butanoyl)pyrrolidine-2-carboxamide hydrochloride]	0.1 to 1	> 10	> 10
CN[C@@H](C)C(=O)N[C@H](C(=O)N1CCC[C@H]1C(=O)Nc1cc2c(Nc3ccccn3)ncnc2cc1OC)C(C)(C)C [Example 33, (S)-1-((S)-3,3-dimethyl-2-((S)-2-(methylamino)propanamido)butanoyl)-N-(7-methoxy-4-(pyridin-2-ylamino)quinazolin-6-yl)pyrrolidine-2-carboxamide]	≤ 0.1	> 10	> 10
CN[C@@H](C)C(=O)N[C@H](C(=O)N1CCC[C@H]1C(=O)Nc1cc2c(Nc3cnc4ccccc4c3)ncnc2cc1OC)C(C)(C)C [Example 62, (S)-1-((S)-3,3-dimethyl-2-((S)-2-(methylamino)propanamido)butanoyl)-N-(7-methoxy-4-(quinoline-3-ylamino)quinazolin-6-yl)pyrrolidine-2-carboxamide dihydrochloride]	0.1 to 1	> 10	> 10
CN[C@@H](C)C(=O)N[C@H](C(=O)N1CCC[C@H]1C(=O)Nc1cc2c(Nc3ccccc3C)ncnc2cc1OC)C(C)(C)C [Example 27, (S)—N-(4-(o-toluidino)-7-methoxyquinazolin-6-yl)-1-((S)-3,3-dimethyl-2-((S)-2-(methylamino)propanamido)butanoyl)pyrrolidine-2-carboxamide hydrochloride]	≤ 0.1	> 10	> 10
CN[C@@H](C)C(=O)N[C@H](C(=O)N1CCC[C@H]1C(=O)Nc1cc2c(Nc3ccc(Cl)cc3Cl)ncnc2cc1OC)C(C)(C)C [Example 58, (S)—N-(4-(2,4-dichlorophenylamino)-7-methoxyquinazolin-6-yl)-1-((S)-3,3-dimethyl-2-((S)-2-(methylamino)propanamido)butanoyl)pyrrolidine-2-carboxamide hydrochloride]	≤ 0.1	> 10	> 10
CN[C@@H](C)C(=O)N[C@H](C(=O)N1CC[C@H]1C(=O)Nc1cc2c(Nc3ccc(F)c(Cl)c3F)ncnc2cc1OC)C(C)(C)C [Example 20, (S)—N-(4-(3-chloro-2,4-difluorophenylamino)-7-methoxyquinazolin-6-yl)-1-((S)-3,3-dimethyl-2-((S)-2-(methylamino)propanamido)butanoyl)azetidine-2-carboxamide hydrochloride]	0.1 to 1	> 10	> 10
CN[C@@H](C)C(=O)N[C@H](C(=O)N1CCC[C@H]1C(=O)Nc1cc2c(Nc3c(Cl)ccc4c3OCO4)ncnc2cc1OCCOC)C(C)(C)C [Example 3, ((S)—N-(4-(5-chlorobenzo[d][1,3]dioxol-4-ylamino)-7-(2-methoxyethoxy)quinazolin-6-yl)-1-((S)-3,3-dimethyl-2-((S)-2-(methylamino)propanamido)butanoyl)pyrrolidine-2-carboxamide hydrochloride]	0.1 to 1	> 10	> 10
CN[C@@H](C)C(=O)N[C@H](C(=O)N1CCC[C@H]1C(=O)Nc1cc2c(NC3CCCCC3)ncnc2cc1OC)C(C)(C)C [Example 38, (S)—N-(4-(cyclohexylamino)-7-methoxyquinazolin-6-yl)-1-((S)-3,3-dimethyl-2-((S)-2-(methylamino)propanamido)butanoyl)pyrrolidine-2-carboxamide hydrochloride]	≤ 0.1	> 10	> 10
CN[C@@H](C)C(=O)N[C@H](C(=O)N1CCC[C@H]1C(=O)Nc1cc2c(Nc3ccncc3)ncnc2cc1OC)C(C)(C)C [Example 73, (S)-1-((S)-3,3-dimethyl-2-((S)-2-(methylamino)propanamido)butanoyl)-N-(7-methoxy-4-(pyridin-4-ylamino)quinazolin-6-yl)pyrrolidine-2-carboxamide hydrochloride]	≤ 0.1	> 10	> 10
CN[C@@H](C)C(=O)N[C@H](C(=O)N1CCC[C@H]1C(=O)Nc1cc2c(Nc3ccc(N4CCN(CC5CC5)CC4)c(Cl)c3)ncnc2cc1OC)C(C)(C)C [Example 92, (S)—N-(4-((3-chloro-4-(4-(cyclopropylmethyl)piperazin-1-yl)phenyl)amino)-7-methoxyquinazolin-6-yl)-1-((S)-3,3-dimethyl-2-((S)-2-(methylamino)propanamido)butanoyl)pyrrolidine-2-carboxamide]	≤ 0.1	> 10	–
CN[C@@H](C)C(=O)N[C@H](C(=O)N1CCC[C@H]1C(=O)Nc1cc2c(Nc3cccnc3Cl)ncnc2cc1OC)C(C)(C)C [Example 78, (S)—N-(4-((2-chloropyridin-3-yl)amino)-7-methoxyquinazolin-6-yl)-1-((S)-3,3-dimethyl-2-((S)-2-(methylamino)propanamido)butanoyl)pyrrolidine-2-carboxamide hydrochloride]	≤ 0.1	> 10	–

More lines, main results first:

GI50 [3] [µM]	Structure (SMILES)	GI50 at 72 h [1] [µM]	GI50 at 72 h [2] [µM]
≤ 0.1	CCN1CCN(c2ccc(Nc3ncnc4cc(OC)c(NC(=O)[C@@H]5CCCN5C(=O)[C@@H](NC(=O)[C@H](C)NC)C(C)(C)C)cc34)cc2F)CC1 [Example 71, (S)-1-((S)-3,3-dimethyl-2-((S)-2-(methylamino)propanamido)butanoyl)-N-(4-(4-(4-ethylpiperazin-1-yl)-3-fluorophenylamino)-7-methoxyquinazolin-6-yl)pyrrolidine-2-carboxamide dihydrochloride]	> 10	> 10
≤ 0.1	CN[C@@H](C)C(=O)N[C@H](C(=O)N1CCC[C@H]1C(=O)Nc1cc2c(Nc3ccc(N4CCS(=O)(=O)CC4)cc3)ncnc2cc1OC)C(C)(C)C [Example 72, (S)—N-(4-((1,1-dioxide-4-thiomorpholinyl)phenylamino)-7-methoxyquinazolin-6-yl)-1-((S)-3,3-dimethyl-2-((S)-2-(methylamino)propanamido)butanoyl)pyrrolidine-2-carboxamide]	> 10	> 10
≤ 0.1	CN[C@@H](C)C(=O)N[C@H](C(=O)N1CCC[C@H]1C(=O)Nc1cc2c(Nc3ccc(NC(=O)c4ccccc4)cc3)ncnc2cc1OC)C(C)(C)C [Example 76, (S)—N-(4-(4-benzamidophenylamino)-7-methoxyquinazolin-6-yl)-1-((S)-3,3-dimethyl-2-((S)-2-(methylamino)propanamido)butanoyl)pyrrolidine-2-carboxamide]	> 10	> 10
≤ 0.1	CN[C@@H](C)C(=O)N[C@H](C(=O)N1CCC[C@H]1C(=O)Nc1cc2c(Nc3ccc(F)cc3F)ncnc2cc1OC)C(C)(C)C [Example 28, (S)—N-(4-(2,4-difluorophenylamino)-7-methoxyquinazolin-6-yl)-1-((S)-3,3-dimethyl-2-((S)-2-(methylamino)propanamido)butanoyl)pyrrolidine-2-carboxamide hydrochloride]	> 10	> 10
≤ 0.1	CN[C@@H](C)C(=O)N[C@H](C(=O)N1CCC[C@H]1C(=O)Nc1cc2c(Nc3ccc(-c4ccccc4)cc3)ncnc2cc1OC)C(C)(C)C [Example 39, (S)—N-(4-(biphenyl-4-ylamino)-7-methoxyquinazolin-6-yl)-1-((S)-3,3-dimethyl-2-((S)-2-(methylamino)propanamido)butanoyl)pyrrolidine-2-carboxamide hydrochloride]	> 10	> 10

Reference: patent US8835458B2 (Hanmi Science Co., Ltd, priority 2010, dated 2014)
